The record followed here is patent US20160346219A1, “PHOSPHOLIPID-COATED THERAPEUTIC AGENT NANOPARTICLES AND RELATED METHODS” (Autotelic LLC, priority 2015, published 2016).

This series can be described thus: Screening of lyoprotectants for stabilization of nanoparticles on lyophilization (particle size before lyophilization and after reconstitution). The conditions noted are these: single lyoprotectant, amounts 5-20% (FIG. 15). The format is physicochemical. An excerpt: FIG. 15 compares particle size as a function of lyoprotectant and lyoprotectant amount for representative phospholipid-coated therapeutic agent (paclitaxel) nanoparticles of the invention, PC-coated paclitaxel nanoparticle manufactured by thin film-hydration method (LM-101), before lyophilization and after reconstitution.

On to `OC[C@H]1O[C@H](O[C@H]2O[C@H](CO)[C@@H](O)[C@H](O)[C@H]2O)[C@H](O)[C@@H](O)[C@@H]1O` [Trehalose], for which the “stabilization of particles on lyophilization (lyoprotectant)” value is “best in stabilizing the particles on lyophilization”.
